Experimental data reported in patent US7919465B2, “Peptide mimotopes that inhibits interaction between a platelet receptor and a platelet receptor ligand” (priority 2006, dated 2011).
Read-outs that look alike come from different tables or passages of the source. Non-standard residues stand in square brackets, D forms with d. No end group written: not given here.

Legend:
[1] = tested on: vWf binding to resting platelets; assay: Flow cytometry of vWf binding to resting platelets; format: cell-based, human
Experimental: (§1) In order to prepare human platelets for testing, as approved by Canadian Blood Services' Ethics Board, samples of whole blood were drawn from healthy, consenting donors into 2.7-4.0 mL citrated tubes (BD, USA). Platelet rich plasma (PRP) was prepared from whole blood by centrifugation in a Beckman (CS-6R) bench-top centrifuge (r=203.57 mm, Beckman Coulter, USA) 164×g for 15 minutes. PRP from a number of unrelated donors were evaluated on an Adiva 120 Hematology Analyzer (Bayer, Canada) and standardized to a concentration of 300×10^9 platelets/L in HEPES buffered saline (HBS, 10 mM HEPES, 150 mM NaCl, pH 7.4).
(§2) 40 μL aliquots of HBS were mixed with 5 μL PRP and 5 μL of the material to be tested: 500 kDa native HPG; free peptides; or peptide-conjugated HPG at 1.0×10^−3 M to 1.0×10^−9 M. After 40 minutes of incubation at ambient temperature, 5 μL 0.01 mg/mL FITC-conjugated polyclonal sheep anti-human vWf IgG (Abcam, USA) or 5 μL of 2 mg/mL PE-conjugated monoclonal mouse anti-human CD62 IgG (Beckman-Coulter, Canada) was added and incubation was continued in the dark for 30 min. Thereafter the samples were diluted and fixed with 1.0 mL 0.2% formolsaline (0.2% formaldehyde, 150 mM NaCl, pH 7.20) before analysis on a FACS Canto flow cytometer (BD, USA).
(§3) The effect of native HPG, free peptides, and peptide-conjugated HPG on activated platelets using modifications of the above assay systems was also examined. Platelets were treated with either 5 μL 4.2 mg/mL ristocetin (Chrono-Log, USA) or 100 U thrombin (T6884, Sigma-Aldrich, Canada) with 5 μL GPRP fibrin inhibitor (G5779, Sigma-Aldrich, Canada) dissolved in HBS. This was done to determine whether the peptides and the peptide-conjugates can mitigate vWf and thrombin mediated platelet effects. Controls included incubation with mouse IgG-FITC/IgG-PE (Beckman-Coulter, Canada) of the same isotype, and/or omitting the conjugate. As a result, native HPG, free peptides, and peptide-conjugated HPG neither did they increase vWf binding to resting platelets (Table 5) or they could trigger platelet activation.

[2] = tested on: CD62/P-selectin on platelet surfaces; assay: Flow cytometry of surface CD62 expression on platelets; format: cell-based, human; conditions: for Surface CD62 Expression, Activated Platelets: thrombin-activated platelets
Experimental: as §1, §2
as §3, with “activation. […]” for “activation.”

GPIb-vWf interaction = target: T1, GPIb-vWf interaction (Homo sapiens, UniProt P07359); assay: Flow cytometry inhibition of vWf binding to ristocetin-activated platelets in PRP; format: cell-based
T1 construct: Platelet rich plasma (PRP) was prepared from whole blood by centrifugation; endogenous in cells
Experimental: as §1
Thereafter the samples were diluted and fixed with 1.0 mL 0.2% formolsaline (0.2% formaldehyde, 150 mM NaCl, pH 7.20) before analysis on a FACS Canto flow cytometer (BD, USA).
The effect of native HPG, free peptides, and peptide-conjugated HPG on activated platelets using modifications of the above assay systems was also examined. Platelets were treated with either 5 μL 4.2 mg/mL ristocetin (Chrono-Log, USA) or 100 U thrombin (T6884, Sigma-Aldrich, Canada) with 5 μL GPRP fibrin inhibitor (G5779, Sigma-Aldrich, Canada) dissolved in HBS. […] Controls included incubation with mouse IgG-FITC/IgG-PE (Beckman-Coulter, Canada) of the same isotype, and/or omitting the conjugate.

purified vWf = purified vWf (Homo sapiens, UniProt P04275); assay: Random D-peptide array on cellulose membrane probed with purified vWf; format: binding; conditions: detected by HRP anti-human-vWf IgG
Description: Random D-amino acid peptides (15 mer) were synthesized and probed with vWf to detect random sequences capable of binding vWf.
Random peptide arrays of 1120 peptides made of D-amino acids were synthesized on a cellulose membrane using an AutoSpot ASP 222 peptide synthesizer (ABiMED, Langenfeld, Germany). Resulting replicate libraries of 15-mer sequences were probed for vWf binding function by exposing the membranes to purified vWf after blocking with skim milk to prevent non-specific binding of horseradish peroxidase labelled goat anti-human-vWf IgG. The chemiluminescent substrate from the Amersham Pharmacia ECL kit detected positive spots that were recorded on photographic film. Negative controls consisted of probing the membranes with the antibodies without prior exposure of the membrane to purified vWf.
(§4) Peptides on random 15-mer peptide arrays that were built of D-amino acids were selected on the basis of their ability to bind to vWf. Only four positive sequences were identified: D-pep1—[…] (SEQ ID NO:4); D-pep2—[…] (SEQ ID NO:5); D-pep3—[…] (SEQ ID NO:6); and D-pep4—[…] (SEQ ID NO:7). D-pep2 (SEQ ID NO:5), D-pep3 (SEQ ID NO:6) and D-pep4 (SEQ ID NO:7) were synthesized for laboratory experimentation. D-pep3 (SEQ ID NO:6), 10 mg, was synthesized by UBC's Peptide Proteomic Centre and was solubilized in Hepes-saline buffer, pH 7.4 and used at 0.1-0.5 mg/mL. Fresh washed platelets ([…]) in Hepes buffer were added and agglutination was initiated by 1.25 mg/mL ristocetin (Sigma). Agglutination times and levels were monitored both microscopically and on an aggregometer (ChronoLog) as described by the manufacturer.

[3] = tested on: GPIb-vWf-mediated platelet agglutination; assay: Inhibition of ristocetin-mediated agglutination of washed platelets (microscopy, aggregometer); format: cell-based, human; conditions: for % agglutination (aggregometry): at 10 minutes, washed platelets, ristocetin
Experimental: as §4

platelets = assay: Aggregometry, % aggregation on activation; format: cell-based, human; set-up: concentration or dose not given beside the values; conditions: ristocetin activation
Experimental: as §1, §3
The inhibition of platelet agglutination by vWf was observed both by light microscopy and lumiaggregometry (Table 5). No clumping was seen when resting platelets were incubated with free peptides, native HPG, or peptide-conjugated HPG.

[4] = inhibition of platelet-vWf binding, molar concentration of peptide or conjugate, read-out: Ic50
[5] = expressed as peptide concentration
[6] = inhibition of platelet-vWf binding, molar concentration of peptide or conjugate

Row | Substance | vWf Binding, Resting Platelets [1] | Surface CD62 Expression, Resting Platelets [2] | Surface CD62 Expression, Activated Platelets [2] | vWf binding on random 15-mer D-peptide array (purified vWf) | Aggregometry % Aggregation on Activation (platelets) | Peptide Concentration at Ic50 (M) (GPIb-vWf interaction; [5]) | Ic50 (M) (GPIb-vWf interaction; [6]) | also measured
1 | LR10: HPG conjugate with 10 L-retro peptides per HPG molecule (CGGGGGGRDKLGIYAHS; also: conjugated to HPG, 10 L-retro peptides per HPG molecule, site not given here) | 24 ± 2′ | 17 ± 2 | 72 ± 4″ | – | – | – | – | IC50 (GPIb-vWf interaction; [4]): 4.1 µM
2 | L10: HPG 500 kDa conjugate with about 10 L-peptides per HPG molecule (CGGGGGGSHAYIGLKDR; also: conjugated to HPG 500 kDa, about 10 L-peptides per HPG molecule, site not given here) | 22 ± 5′ | 17 ± 1 | 73 ± 5″ | – | – | – | – | inhibition of vWf binding to platelets (in words) (GPIb-vWf interaction): effective inhibitors; IC50 (GPIb-vWf interaction; expressed as peptide concentration, read-out: Peptide Concentration at Ic50): 67 µM; IC50 (GPIb-vWf interaction; [4]): 6.7 µM
3 | DSCPRDWDNNFLFFE ([dD][dS][dC][dP][dR][dD][dW][dD][dN][dN][dF][dL][dF][dF][dE]) [D-pep4] | – | – | – | positive | – | – | – | –
4 | RSARMQVCWNAFKNR ([dR][dS][dA][dR][dM][dQ][dV][dC][dW][dN][dA][dF][dK][dN][dR]) [D-pep3] | – | – | – | positive | – | – | – | % agglutination (aggregometry) ([3]; 0.1 mg/mL): 69%; % agglutination (aggregometry) ([3]; 0.25 mg/mL): 28%; % agglutination (aggregometry) ([3]; 0.5 mg/mL): 13%; ristocetin-mediated platelet agglutination by microscopy ([3]; 100-fold excess of peptide based on plasma vWf content, controls agglutinated within 5 minutes): prevented visible agglutination at 20 minutes
5 | D100: HPG 500 kDa conjugate with about 100 D-peptides per HPG molecule ([dC]GGGGGG[dR][dD][dK][dL]G[dI][dY][dA][dH][dS]; also: coupled through vinyl sulfone to 500 kDa hyperbranched polyglycerol (HPG), about 100 peptides per HPG) | 26 ± 3′ | 18 ± 1 | 72 ± 1″ | – | 73 ± 5% | No activity | No activity | –
6 | WQNEGTHVLSRCYEC ([dW][dQ][dN][dE]G[dT][dH][dV][dL][dS][dR][dC][dY][dE][dC]; cysteine pairing not given here) [D-pep2] | – | – | – | positive | – | – | – | –
7 | D10: HPG 500 kDa conjugate with about 10 D-peptides per HPG molecule ([dC]GGGGGG[dR][dD][dK][dL]G[dI][dY][dA][dH][dS]; also: coupled through vinyl sulfone to 500 kDa hyperbranched polyglycerol (HPG), about 10 peptides per HPG) | 24 ± 2′ | 14 ± 7 | 70 ± 6″ | – | 82 ± 5% | No activity | No activity | –
8 | CGGGGGGRDKLGIYAHS [LR-pep] | 25 ± 12′ | 19 ± 2 | 70 ± 5″ | – | 5 ± 5% | – | – | IC50 (GPIb-vWf interaction): 34 µM
9 | D-CGGGGGGRDKLGIYAHS [DR-pep] | 28 ± 3′ | 27 ± 18 | 72 ± 3″ | – | 78 ± 5% | No activity | No activity | –
10 | LR100: HPG 500 kDa conjugate with about 100 L-retro peptides per HPG molecule (CGGGGGGRDKLGIYAHS; also: conjugated to HPG 500 kDa, about 100 L-retro peptides per HPG molecule, site not given here) | 22 ± 2′ | 18 ± 1 | 73 ± 2″ | – | – | – | – | inhibition of vWf binding to platelets (in words) (GPIb-vWf interaction): effective inhibitors; IC50 (GPIb-vWf interaction; [4]): 0.49 µM
11 | VSRQNGKQYWAIKEG ([dV][dS][dR][dQ][dN]G[dK][dQ][dY][dW][dA][dI][dK][dE]G) [D-pep1] | – | – | – | positive | – | – | – | –
12 | D-CGGGGGGRDKLGIYAHS [D-pep] | 14 ± 8′ | 18 ± 2 | 68 ± 10″ | – | 80 ± 5% | No activity | No activity | –
13 | bovine serum albumin [reference compound] | – | – | – | – | – | – | – | % agglutination (aggregometry) ([3]; 0.5 mg/mL): 55%
